Experimental data taken from patent US20110086920A1, “Gamma Glutamylcysteine Treatment or Prevention of Oxidative Injury” (priority 2007, published 2011).

Columns and labels:
[1] = rat, in vivo
Experimental: (§1) FIG. 2: IV γ-glutamylcysteine Supplementation in Rats. Two rats were administered γ-glutamylcysteine intravenously. […] Plasma was collected at 0, 15, 30, 60, 90, and 120 minutes post-administration and assayed for γ-glutamylcysteine levels.
(§2) Two rats were administered γ-glutamylcysteine intravenously. […] Plasma was collected at 0, 15, 30, 60, 90, and 120 minutes post-administration and assayed for γ-glutamylcysteine levels.

glutathione = experiment: Tissue glutathione levels after intravenous γ-glutamylcysteine supplementation in rats; type: in vivo; details: for Tissue Glutathione Concentration: rats 400 mg/kg IV, mean (95% CI)
Experimental: Ten rats were also administered 400 mg/kg of γ-glutamylcysteine intravenously. Major organ tissues were harvested from these rats at 0, 30, 60, 90, 120, and 240 minutes and assayed for glutathione concentration. […] [table]

neuronal cells = experiment: F2-IsoPs level (oxidative stress) in neuronal cells exposed to H2O2; type: cell-based; details: neuronal cells pretreated with GGC 500 μM four hours prior to exposure to H2O2
From the text: To quantify the oxidative stress response, as well as modification of this response by γ-glutamylcysteine supplementation, the inventors will measure isoprostane and isofuran levels. Isoprostanes are prostaglandin like compounds that are produced without cyclooxygenase by free radical induced peroxidation of arachidonic acid. Prostaglandin F2α like compounds, termed F2-isoprostanes (F2IsoPs) have been shown both in vitro and in vivo to be an accurate measure of oxidative stress.

[2] = Plasma γ-glutamylcysteine levels after intravenous administration in rats; type: in vivo
Experimental: as §1, §2

Neurons and Astrocytes = experiment: Cell death after H2O2 oxidative stress in vitro (MTT, LDH, GSH assays); type: cell-based; details: γ-glutamylcysteine 500 μM; 10 μM H2O2
From the text: FIGS. 1A-F: Effects of γ-glutamylcysteine on Neurons and Astrocytes. Protection of cells as measured by MTT (3-(4,5-Dimethylthiazol-2-yl)-2,5-diphenyltetrazolium bromide) assay, GSH (glutathione) assay, and LDH (lactate dehydrogenase) assay.

N[C@@H](CCC(=O)N[C@@H](CS)C(=O)O)C(=O)O [γ-glutamylcysteine]
tolerability of intravenous supplementation [1]: well-tolerated | clinically visible signs of toxicity ([1]; iv): no clinically visible signs of toxicity | Tissue Glutathione Concentration (glutathione; Brain, 0 min, n=5): 57.3 (3.3-111.3) μM | Tissue Glutathione Concentration (glutathione; Brain, 60 min, n=4): 302.3 (190.0-414.5) μM | Tissue Glutathione Concentration (glutathione; Brain, 90 min, n=2): 146.9 (−1200.5-1494.3) μM | Tissue Glutathione Concentration (glutathione; Brain, 120 min, n=2): 170.7 (152.0-189.5) μM | Tissue Glutathione Concentration (glutathione; Brain, 240 min, n=2): 110.7 (54.1-167.3) μM | Tissue Glutathione Concentration (glutathione; GI, 0 min, n=5): 12.9 (7.2-18.5) μM | Tissue Glutathione Concentration (glutathione; GI, 60 min, n=4): 189.8 (−5.5-385.0) μM | Tissue Glutathione Concentration (glutathione; GI, 90 min, n=2): 166.8 (−1699.0-2032.5) μM | Tissue Glutathione Concentration (glutathione; GI, 120 min, n=2): 14.0 (−1.6-29.6) μM | Tissue Glutathione Concentration (glutathione; GI, 240 min, n=2): 18.5 (−100.3-137.3) μM | Tissue Glutathione Concentration (glutathione; Heart, 0 min, n=5): 210.9 (34.4-387.4) μM | Tissue Glutathione Concentration (glutathione; Heart, 60 min, n=4): 353.4 (220.9-486.0) μM | Tissue Glutathione Concentration (glutathione; Heart, 90 min, n=2): 658.9 (504.5-813.2) μM | Tissue Glutathione Concentration (glutathione; Heart, 120 min, n=2): 165.9 (149.4-182.4) μM | Tissue Glutathione Concentration (glutathione; Heart, 240 min, n=2): 278.1 (170.7-385.4) μM | Tissue Glutathione Concentration (glutathione; Kidney, 0 min, n=5): 14.9 (4.5-25.2) μM | Tissue Glutathione Concentration (glutathione; Kidney, 60 min, n=4): 13.5 (−9.1-36.2) μM | Tissue Glutathione Concentration (glutathione; Kidney, 90 min, n=2): 39.1 (−195.0-273.2) μM | Tissue Glutathione Concentration (glutathione; Kidney, 120 min, n=2): 13.4 (−16.9-43.6) μM | Tissue Glutathione Concentration (glutathione; Kidney, 240 min, n=2): 10.2 (−8.9-29.3) μM | Tissue Glutathione Concentration (glutathione; Liver, 0 min, n=5): 2162.4 (1490.3-2834.5) μM | Tissue Glutathione Concentration (glutathione; Liver, 60 min, n=4): 5066.4 (−85.9-10218.8) μM | Tissue Glutathione Concentration (glutathione; Liver, 90 min, n=2): 10832.6 (9616.0-12049.1) μM | Tissue Glutathione Concentration (glutathione; Liver, 120 min, n=2): 2990.0 (2239.8-3740.1) μM | Tissue Glutathione Concentration (glutathione; Liver, 240 min, n=2): 4213.7 (−6431.5-14858.8) μM | Tissue Glutathione Concentration (glutathione; Lung, 0 min, n=5): 142.2 (50.8-233.7) μM | Tissue Glutathione Concentration (glutathione; Lung, 60 min, n=4): 293.5 (248.6-338.4) μM | Tissue Glutathione Concentration (glutathione; Lung, 90 min, n=2): 412.2 (−571.1-1395.4) μM | Tissue Glutathione Concentration (glutathione; Lung, 120 min, n=2): 166.4 (−58.3-391.0) μM | Tissue Glutathione Concentration (glutathione; Lung, 240 min, n=2): 93.2 (−261.7-448.1) μM | Tissue Glutathione Concentration (glutathione; Muscle, 0 min, n=5): 228.5 (125-0-331.9) μM | Tissue Glutathione Concentration (glutathione; Muscle, 60 min, n=4): 307.6 (−1.1-616.3) μM | Tissue Glutathione Concentration (glutathione; Muscle, 90 min, n=2): 654.5 (44.8-1264.2) μM | Tissue Glutathione Concentration (glutathione; Muscle, 120 min, n=2): 170.5 (−137.5-478.6) μM | Tissue Glutathione Concentration (glutathione; Muscle, 240 min, n=2): 21.9 (−16.3-60.1) μM | mean glutathione levels in brain, heart, lung, liver, kidney, gastrointestinal and muscle tissues (glutathione; rats, 400 mg/kg intravenous): increased | tissue glutathione levels (glutathione; rats, intravenous): significant elevation | level of F2-IsoPs (oxidative stress) (neuronal cells): reduced | plasma γ-glutamylcysteine levels ([2]; rats): significant elevation | time of peak plasma γ-glutamylcysteine concentration post-injection ([2]; two rats, plasma at 0-120 min): 30 min | cell death after exposure to H2O2 (Neurons and Astrocytes): significantly reduce cell death
